One experiment has as its target T1, aldose reductase (Bos taurus, UniProt P16116).
T1 construct: in the preparation of the enzyme from bovine lens; from tissue; host or cells: bovine lens
The experiment is described as follows: in vitro inhibition of aldose reductase (modified Hayman and Kinoshita procedure, enzyme from bovine lens). Format: biochemical. The note with it: for inhibition at 0.04 µM: 4 × 10^-8 M; for inhibition at 10 µM: 10^-5 M; for inhibition at 1 µM: 10^-6 M; for inhibition at 0.1 µM: 10^-7 M. How it is done:
(c) The polyol determination was performed by a modification of the procedure of M. Kraml and L. Cosyns, Clin. Biochem., 2,373 (1969). Only two minor reagent changes were made: (a) The rinsing mixture was an aqueous 5% (w/v) trichloroacetic acid solution and (b) the stock solution was prepared by dissolving 25 mg of dulcitol in 100 ml of an aqueous trichloroacetic acid solution. [N.B.: For each experiment the average value found in the tissue from rats fed the glucose diet was subtracted from the individual values found in the corresponding tissue in galactose-fed rats to obtain the amount of polyol accumulated.] The aldose reductase inhibiting effects of the compounds of formula (I) were also tested by employing an in vitro testing procedure similar to that described by S. Hayman and J. H. Kinoshita, J. Biol. Chem., 240,877 (1965). In the present case the procedure of Hayman and Kinoshita was modified in that the final chromatography step was omitted in the preparation of the enzyme from bovine lens. […] The figures under L and N represent the percentage decrease of dulcitol accumulation in the tissues of the lens and sciatic nerve, respectively, for treated rats as compared to untreated rats.

The test system of experiment [1] is dulcitol accumulation in sciatic nerve. The experiment is described as follows: in vivo lowering of dulcitol accumulation in sciatic nerve of galactosemic rats. Further details: species or system rat (Sprague-Dawley). As to conditions: in diet, four days. The text has this: (§1) The aldose reductase inhibiting property of the compounds of this invention and the utilization of the compounds in preventing, diminishing and alleviating diabetic complications are demonstrable in experiments using galactosemic rats, see Dvornik et al., Science, 182, 1146 (1973). Such experiments are exemplified hereinbelow after the listing of the following general comments pertaining to these experiments:
(§2) (a) Four or more groups of six male rats, 50-70 g, Sprague-Dawley strain, were used. The first group, the control group, was fed a mixture of laboratory chow (Rodent Laboratory Chow, Purina) and glucose at 20% (w/w %) concentration. The untreated galactosemic group was fed a similar diet in which galactose is substituted for glucose. The third group was fed a diet prepared by mixing a given amount of the test compound with the galactose containing diet. The concentration of the galactose in the diet of the treated groups was the same as that for the untreated galactosemic group.
(§3) (b) After four days, the animals were killed by euthanization. The lenses were removed from the eyes and weighed. The sciatic nerves were dissected as completely as possible and weighed. Both tissues when frozen can be kept up to two weeks before being analyzed for dulcitol.
(c) The polyol determination was performed by a modification of the procedure of M. Kraml and L. Cosyns, Clin. Biochem., 2,373 (1969). Only two minor reagent changes were made: (a) The rinsing mixture was an aqueous 5% (w/v) trichloroacetic acid solution and (b) the stock solution was prepared by dissolving 25 mg of dulcitol in 100 ml of an aqueous trichloroacetic acid solution. [N.B.: For each experiment the average value found in the tissue from rats fed the glucose diet was subtracted from the individual values found in the corresponding tissue in galactose-fed rats to obtain the amount of polyol accumulated.] The aldose reductase inhibiting effects of the compounds of formula (I) were also tested by employing an in vitro testing procedure similar to that described by S. Hayman and J. H. Kinoshita, J. Biol. Chem., 240,877 (1965). In the present case the procedure of Hayman and Kinoshita was modified in that the final chromatography step was omitted in the preparation of the enzyme from bovine lens.
The figures under L and N represent the percentage decrease of dulcitol accumulation in the tissues of the lens and sciatic nerve, respectively, for treated rats as compared to untreated rats.

Experiment [2] concerns dulcitol accumulation in lens. The experiment is described as follows: in vivo lowering of dulcitol accumulation in lens of galactosemic rats. Further details: species or system rat (Sprague-Dawley). The note with it: in diet, four days.
Description: as §1, §2, §3
(c) The polyol determination was performed by a modification of the procedure of M. Kraml and L. Cosyns, Clin. Biochem., 2,373 (1969). Only two minor reagent changes were made: (a) The rinsing mixture was an aqueous 5% (w/v) trichloroacetic acid solution and (b) the stock solution was prepared by dissolving 25 mg of dulcitol in 100 ml of an aqueous trichloroacetic acid solution. [N.B.: For each experiment the average value found in the tissue from rats fed the glucose diet was subtracted from the individual values found in the corresponding tissue in galactose-fed rats to obtain the amount of polyol accumulated.] […]

The text below walks through data of patent publication US4983613A, “Isoquinoline acetic acids and acetyl carbamates useful as aldose reductase inhibitors” (American Home Products Corporation, priority 1989, dated 1991).

Broadly, the inhibition is the change of the read-out against control, counted positive when it falls. Read a high inhibition as strong suppression. As to `O=C(O)CC1C(=O)N(Cc2ccc(Br)cc2F)C(=O)c2ccccc21` (stereo not shown) [2-[(4-Bromo-2-fluorophenyl)methyl]-1,2,3,4-tetrahydro-1,3-dioxo-4-isoquinolineacetic Acid], at aldose reductase, the inhibition at 0.04 µM turned out to be 50%, 10 µM produced 94% inhibition, the inhibition at 1 µM came to 91% and 0.1 µM produced 88% inhibition.

`CCOC(=O)NC(=O)CC1C(=O)N(C)C(=O)c2ccc(Cl)cc21` (stereo not shown) [-6Cl, H, CH3, NHCO2 C2 H5, [(6-chloro-1,2,3,4-tetrahydro-2-methyl-1,3-dioxo-4-isoquinolinyl)acetyl]carbamic acid ethyl ester]: 10 µM produced 14.5% inhibition against aldose reductase. Further, the “% Lowering Ducitol Accumulation In vivo, Nerve” value in experiment [1] (24.5 mg/kg) is 34%.

At aldose reductase, `COC(=O)NC(=O)CC1C(=O)N(C)C(=O)c2cc(Cl)ccc21` (stereo not shown) [7Cl, CH3, NHCO2 CH3, [(7-chloro-1,2,3,4-tetrahydro-2-methyl-1,3-dioxo-4-isoquinolinyl)acetyl]carbamic acid methyl ester] had an inhibition at 10 µM of 50% and an inhibition at 1 µM of 17%. Besides, the “% Lowering Ducitol Accumulation In vivo, Nerve” value in experiment [1] (24.3 mg/kg) is recorded as 28%.

Turning to `COC(=O)NC(=O)CC1C(=O)N(Cc2ccc(Br)cc2F)C(=O)c2ccc(F)cc21` (stereo not shown) [[[2-[(4-Bromo-2-fluorophenyl)methyl]-6-fluoro-1,2,3,4-tetrahydro-1,3-dioxo-4-isoquinolinyl]acetyl]carbamic Acid Methyl Ester], at aldose reductase, the inhibition at 10 µM is 55% and the inhibition at 1 µM worked out at 18%. The “% Lowering Ducitol Accumulation In vivo, Nerve” value in experiment [1] (26 mg/kg) was 78%.

`COC(=O)NC(=O)CC1C(=O)N(C)C(=O)c2ccc(Cl)cc21` (stereo not shown) [6Cl, H, CH3, NHCO2 CH3, [(6-chloro-1,2,3,4-tetrahydro-2-methyl-1,3-dioxo-4-isoquinolinyl)acetyl]carbamic acid methyl ester] returned an inhibition at 10 µM against aldose reductase of 64.5%. The inhibition at 1 µM on aldose reductase was 26.6%. The “% Lowering Ducitol Accumulation In vivo, Nerve” value in experiment [1] (25 mg/kg) is listed as 53%; in experiment [1] (86.1 mg/kg) it was 81%. The “% Lowering Ducitol Accumulation In vivo, Lens” value turned out to be 24% in experiment [2] (25 mg/kg) and 55% in experiment [2] (86.1 mg/kg).

Compound `COC(=O)NC(=O)CC1C(=O)N(C)C(=O)c2ccccc21` (stereo not shown) [H, H, CH3, NHCO2 CH3, [(1,2,3,4-Tetrahydro-2-methyl-1,3-dioxo-4-isoquinolinyl)acetyl]carbamic Acid Methyl Ester] had an inhibition at 10 µM on aldose reductase of 61%. Moreover, the “% Inhibition in vitro” value on aldose reductase (10^- M (exponent not given)) stood at 11%. The “% Lowering Ducitol Accumulation In vivo, Nerve” value in experiment [1] (26.8 mg/kg) is 21.2%; in experiment [1] (85.0 mg/kg) it was 58.6%. Further, the “% Lowering Ducitol Accumulation In vivo, Lens” value in experiment [2] (85.0 mg/kg) amounted to 37.2%.

On to `O=C(O)CC1C(=O)N(Cc2ccc(Br)cc2F)C(=O)c2ccc(F)cc21` (stereo not shown) [2-[(4-Bromo-2-fluorophenyl)methyl]-6-fluoro-1,2,3,4-tetrahydro-1,3-dioxo-4-isoquinolineacetic Acid], for which, at aldose reductase, the inhibition at 0.04 µM amounted to 80%, the inhibition at 10 µM is 96%, testing at 1 µM gave an inhibition of 91% and the inhibition at 0.1 µM came out at 86%. In addition, the “% Lowering Ducitol Accumulation In vivo, Nerve” value in experiment [1] (25 mg/kg) was determined as 47%.
